This assay has as its system human hair follicle dermal papilla cells (hFDPC). The assay can be described thus: Human follicle dermal papilla cells (hFDPC) proliferation assay. In kind it is cell-based. The settings on record: hFDPCs supplemented with BIO, BMP-2 and FGFβ. From the text: In Table 8, A represents less than 20% of increased proliferation of hFDPCs, B represents 20-40%, and C represents larger than 40% of increased proliferation of hFDPCs.
As to `CCCCN1CCc2cc(/C=C3\C(=O)NC(=O)N(C)C3=O)ccc21` [I-12, 2,4,6(1H,3H,5H)-Pyrimidinetrione, 5-[(1-butyl-2,3-dihydro-1H-indol-5-yl)methylene]-1-methyl-], the “Percent Increase Proliferation of hFDPCs (%)” value is reported as “B (B represents 20-40%)”.
The same measure for `COc1ccc(CC(=O)Nc2sc3c(c2C(=O)Nc2cccc([N+](=O)[O-])c2)CCC(C)C3)cc1` (stereo not drawn) [VII-22, Benzo[b]thiophene-3-carboxamide, 4,5,6,7-tetrahydro-2-[[2-(4-methoxyphenyl)acetyl]amino]-6-methyl-N-(3-nitrophenyl)-]: “A (A represents less than 20% of increased proliferation of hFDPCs)”.
For the compound `Cc1ccc(-c2nn(CC(=O)NCCc3c(C)n(C)c4ccccc34)c(=O)c3ccccc23)cc1S(=O)(=O)N1CCOCC1` [VII-21, 2(1H)-Phthalazineacetamide, N-[2-(1,2-dimethyl-1H-indol-3-yl)ethyl]-4-[4-methyl-3-(4-morpholinylsulfonyl)phenyl]-1-oxo-], the “Percent Increase Proliferation of hFDPCs (%)” value is “A (A represents less than 20% of increased proliferation of hFDPCs)”.
The same measure for `CN1C(=O)NC(=O)/C(=C\c2cccc(OCC(=O)O)c2)C1=O` [I-14]: “A (A represents less than 20% of increased proliferation of hFDPCs)”; for `COc1ccc(S(=O)(=O)Nc2ccc(S(=O)(=O)NCCc3ccccc3)cc2)cc1` [VI-5, Benzenesulfonamide, 4-methoxy-N-[4-[[(2-phenylethyl)amino]sulfonyl]phenyl]-]: “A (A represents less than 20% of increased proliferation of hFDPCs)”.
For `CCS(=O)(=O)n1[nH]c(-c2ccco2)nc1=N` [VII-2, 1H-1,2,4-Triazol-5-amine, 1-(ethylsulfonyl)-3-(2-furanyl)-], the “Percent Increase Proliferation of hFDPCs (%)” value is reported as “A (A represents less than 20% of increased proliferation of hFDPCs)”.
As for `COC(=O)c1cccc(NC(=O)c2cc(NC(=O)c3ccccc3)cc(C(=O)Nc3cccc(C(=O)OC)c3)c2)c1` [VII-23, Benzoic acid, 3,3′-[[5-(benzoylamino)-1,3-phenylene]bis(carbonylimino)] bis-, dimethyl ester (9CI)], the “Percent Increase Proliferation of hFDPCs (%)” value is “B (B represents 20-40%)”.
For the compound `COc1ccc(N(CC(=O)N2CCN(c3ccccc3OC)CC2)S(=O)(=O)c2ccccc2)cc1` [VII-16, Benzenesulfonamide, N-(4-methoxyphenyl)-N-[2-[4-(2-methoxyphenyl)-1-piperazinyl]-2-oxoethyl]-], the “Percent Increase Proliferation of hFDPCs (%)” value is given as “A (A represents less than 20% of increased proliferation of hFDPCs)”.
Regarding `C=CCc1cc(C=C2C(=O)NC(=S)NC2=O)cc(OCC)c1O` [I-8], the “Percent Increase Proliferation of hFDPCs (%)” value is reported as “B (B represents 20-40%)”.
In the case of `COc1ccc(/C=C2\C(=O)NC(=O)N(C)C2=O)c(OC)c1` [I-11, 2,4,6(1H,3H,5H)-Pyrimidinetrione, 5-[(2,4-dimethoxyphenyl)methylene]-1-methyl-, (5E)-], the “Percent Increase Proliferation of hFDPCs (%)” value is “A (A represents less than 20% of increased proliferation of hFDPCs)”.
For `COc1cc(/C=C2\C(=O)NC(=O)N(Cc3ccccc3)C2=O)cc(OC)c1O` [I-5, 2,4,6(1H,3H,5H)-Pyrimidinetrione, 5-[(4-hydroxy-3,5-dimethoxyphenyl)methylene]-1-(phenylmethyl)-], the “Percent Increase Proliferation of hFDPCs (%)” value is listed as “B (B represents 20-40%)”.
The same measure for `CCOCCc1nnc(NC(=O)c2cc(-c3ccccc3)nc3ccccc23)s1` [III-4, 4-Quinolinecarboxamide, N-[5-(2-ethoxyethyl)-1,3,4-thiadiazol-2-yl]-2-phenyl-]: “B (B represents 20-40%)”; for `O=C(c1cccs1)N1CCN(C(=O)c2cccc3ccccc23)CC1` [VII-18, Piperazine, 1-(1-naphthalenylcarbonyl)-4-(2-thienylcarbonyl)-(9CI)]: “A (A represents less than 20% of increased proliferation of hFDPCs)”.
On to `NC1=NC2(CCCCC2)n2c(nc3ccccc32)N1` [VII-11, Spiro[cyclohexane-1, 4′(3′H)-[1,3,5]triazino[1,2-a]benzimidazol]-2′-amine], for which the “Percent Increase Proliferation of hFDPCs (%)” value was “A (A represents less than 20% of increased proliferation of hFDPCs)”.
For `CC(C)(C)Nc1nnc(SCc2cc(=O)oc3cc(O)ccc23)s1` [IV-1, 2H-1-Benzopyran-2-one, 4-[[[5-[(1,1-dimethylethyl)amino]-1,3,4-thiadiazol-2-yl]thio]methyl]-7-hydroxy-], the “Percent Increase Proliferation of hFDPCs (%)” value is listed as “B (B represents 20-40%)”.
As for `C=CCc1cc(/C=C2\C(=O)NC(=O)N(c3ccc(C(C)C)cc3)C2=O)cc(OC)c1O` [I-1], the “Percent Increase Proliferation of hFDPCs (%)” value is reported as “A (A represents less than 20% of increased proliferation of hFDPCs)”.
Turning to `CN1C(=O)NC(=O)/C(=C/c2cnc(N(C)C)nc2)C1=O` [I-13, 2,4,6(1H,3H,5H)-Pyrimidinetrione, 5-[[2-(dimethylamino)-5-pyrimidinyl]methylene]-1-methyl-], the “Percent Increase Proliferation of hFDPCs (%)” value is “A (A represents less than 20% of increased proliferation of hFDPCs)”.
The same measure for `Cc1ccc(-c2nnc(N3CCN(S(C)(=O)=O)CC3)c3ccccc23)cc1` [II-3, Phthalazine, 1-(4-methylphenyl)-4-[4-(methylsulfonyl)-1-piperazinyl]-]: “B (B represents 20-40%)”.
Under `N#Cc1ccc(S(=O)(=O)N2CCC(C(=O)N3CCN(Cc4ccc5c(c4)OCO5)CC3)CC2)cc1` [VI-2, Benzonitrile, 4-[[4-[[4-(1,3-benzodioxol-5-ylmethyl)-1-piperazinyl]carbonyl]-1-piperidinyl]sulfonyl]-] stands “B (B represents 20-40%)”; under `CCN(Cc1ccccc1)C(=O)c1ccc(C(=O)N(CC)Cc2ccccc2)cc1` [VII-20, 1,4-Benzenedicarboxamide, N^1,N^4-diethyl-N^1, N^4-bis(phenylmethyl)-], “A (A represents less than 20% of increased proliferation of hFDPCs)”.
Turning to `Cc1ccc(-c2nnc(N3CCN(C(=O)C4CCCCC4)CC3)c3ccccc23)cc1` [II-1, Methanone, cyclohexyl[4-[4-(4-methylphenyl)-1-phthalazinyl]-1-piperazinyl]-], the “Percent Increase Proliferation of hFDPCs (%)” value is listed as “A (A represents less than 20% of increased proliferation of hFDPCs)”.
The same measure for `CC12C=CC(=O)C=C1CCC1C2C(O)CC2(C)C1CC[C@]2(O)C(=O)COC(=O)CCC(=O)O` (stereo partly drawn) [VII-19, Pregna-1,4-diene-3, 20-dione, 21-(3-carboxy-1-oxopropoxy)-11,17-dihydroxy-, (11β)-]: “A (A represents less than 20% of increased proliferation of hFDPCs)”; for `CC1(c2ccccc2)NC(=O)N(Cc2cc(=O)n3ccccc3n2)C1=O` (stereo not drawn) [VII-25, 2,4-Imidazolidinedione, 5-methyl-3-[(4-oxo-4H-pyrido[1,2-a]pyrimidin-2-yl)methyl]-5-phenyl-]: “B (B represents 20-40%)”.
Under `Cc1ccc(S(=O)(=O)N2CCC(C(=O)N3CCN(Cc4nc5ccccc5s4)CC3)CC2)cc1` [VI-4, Methanone, [4-(2-benzothiazolylmethyl)-1-piperazinyl][1-[(4-methylphenyl)sulfonyl]-4-piperidinyl]-] stands “A (A represents less than 20% of increased proliferation of hFDPCs)”.

The values are drawn from patent US12251459B2, “Compositions, formulations, and methods for hair treatment” (Oddity Labs, LLC, priority 2022, dated 2025).
